In patent US8367873B2, “Phenyl-substituted bicyclooctane-1,3-dione derivatives” (Bayer Cropscience AG, priority 2008, dated 2013):

Key:
Assay type in all cases: in vivo
Alopecurus myosuroides [1] = test: Herbicidal pre-emergence action; details: pre-emergence method, 80 g/ha, greenhouse, visual assessment vs untreated controls
How it was run: (§1)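 Seeds sown in sandy loam and covered with soil; WP-formulated compounds applied as aqueous suspension (600 l/ha water, 0.2% wetting agent) to the soil surface at various rates. Greenhouse-grown; emergence damage scored visually after three weeks versus untreated controls (0% = like control, 100% = plants dead).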

Echinocloa crus-galli [2] = test: Herbicidal pre-emergence action; details: pre-emergence method, 80 g/ha, greenhouse, visual assessment vs untreated controls
How it was run: as §1

Lolium multiflorum [3] = test: Herbicidal pre-emergence action; details: pre-emergence method, 80 g/ha, greenhouse, visual assessment vs untreated controls
How it was run: as §1

Setaria viridis [4] = test: Herbicidal pre-emergence action; details: pre-emergence method, 80 g/ha, greenhouse, visual assessment vs untreated controls
How it was run: as §1

Alopecurus myosuroides [5] = test: Herbicidal post-emergence action; details: post-emergence method; for herbicidal effect against ALOMY (Alopecurus myosuroides): 80 g/ha; for pest or weed control at 80 g/ha: Alopecurus myosuroides, 504 h, read-out: herbicidal effect against ALOMY (Alopecurus myosuroides)
How it was run: (§2)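 One-leaf-stage greenhouse plants sprayed with WP at graded amounts (600 l/ha, 0.2% wetting agent); ~3 wk later, visual % effect rated vs untreated controls, 100% = dead, 0% = like control.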

Echinocloa crus-galli [6] = test: Herbicidal post-emergence action; details: post-emergence method; for herbicidal effect against ECHCG (Echinochloa crus-galli): 80 g/ha; for pest or weed control at 80 g/ha: Echinochloa crus-galli, 504 h, read-out: herbicidal effect against ECHCG (Echinochloa crus-galli)
How it was run: as §2

Lolium multiflorum [7] = test: Herbicidal post-emergence action; details: post-emergence method; for herbicidal effect against LOLMU (Lolium multiflorum): 80 g/ha; for pest or weed control at 80 g/ha: Lolium multiflorum, 504 h, read-out: herbicidal effect against LOLMU (Lolium multiflorum)
How it was run: as §2

Setaria viridis [8] = test: Herbicidal post-emergence action; details: post-emergence method; for herbicidal effect against SETVI (Setaria viridis): 80 g/ha; for pest or weed control at 80 g/ha: Setaria viridis, 504 h, read-out: herbicidal effect against SETVI (Setaria viridis)
How it was run: as §2

cereals = test: Container trials with cereals in the greenhouse, use of safeners (Mefenpyr 1 day prior to herbicide application)
Method: Seeds of monocotylidonous and dicotylidonous weed and crop plants are placed in sandy loam in wood fibre pots, covered with soil and cultivated in a greenhouse under good growth conditions. Two to three weeks after sowing, the test plants are treated at the one-leaf stage. The test compounds, formulated as wettable powders (WP), are then with a water application rate of 600 l/ha (converted), with 0.2% of wetting agent added, sprayed onto the green parts of the plants in different amounts. After the test plants have been kept in the greenhouse under optimum growth conditions for about three weeks, the effect of the preparations is assessed visually in comparison to untreated controls (herbicidal effect in percent: 100% effect=the plants have died, 0% effect=like control plants).
If it is to be additionally tested as to whether safeners can improve the plant compatibility of test substances in the case of crop plants, the following options are used for applying the safeners: • Seeds of the crop plants are, before sowing, dressed with safener substance (the amount of safener stated in percent, based on the weight of the seed) • Before the application of the test substances, the crop plants are sprayed with the safener at a certain application rate per hectare (usually one day before the application of the test substances) • The safener is applied together with the test substance as a tank mix (the amount of safener stated in g/ha or as a ratio, based on the herbicide).
Container Trials with Cereals in the Greenhouse

[9] = tested on: monocotylidonous and dicotylidonous weed and crop plants; test: Herbicidal pre-emergence action (other test plants); details: pre-emergence method, 80 g/ha, greenhouse, visual assessment vs untreated controls
How it was run: as §1

[10] = tested on: monocotylidonous and dicotylidonous weed and crop plants; test: Herbicidal post-emergence action (other test plants); details: post-emergence method; for herbicidal effect against AVEFA (Avena fatua): 80 g/ha; for pest or weed control at 80 g/ha: 504 h, Avena fatua, read-out: herbicidal effect against AVEFA (Avena fatua)
How it was run: as §2

[11] = 10 days after application, 12.5 g of a.i./ha
[12] = 10 days after application, 25 g of a.i./ha
[13] = 10 days after application, 50 g of a.i./ha
[14] = 28 days after application, 12.5 g of a.i./ha
[15] = 28 days after application, 25 g of a.i./ha
[16] = 28 days after application, 50 g of a.i./ha
[17] = 28 days after application, 100 g of a.i./ha

SMILES | herbicidal effect ALOMY (Alopecurus myosuroides [1]) [%] | herbicidal effect ECHCG (Echinocloa crus-galli [2]) [%] | herbicidal effect LOLMU (Lolium multiflorum [3]) [%] | herbicidal effect SETVI (Setaria viridis [4]) [%] | herbicidal effect against ALOMY (Alopecurus myosuroides) (Alopecurus myosuroides [5]) [%] | herbicidal effect against ECHCG (Echinochloa crus-galli) (Echinocloa crus-galli [6]) [%] | herbicidal effect against LOLMU (Lolium multiflorum) (Lolium multiflorum [7]) [%] | herbicidal effect against SETVI (Setaria viridis) (Setaria viridis [8]) [%] | Summer wheat observed (%) (cereals; [11]) | Summer wheat observed (%) (cereals; [12]) | Summer wheat observed (%) (cereals; [13]) | Summer wheat observed (%) (cereals; [14]) | Summer wheat observed (%) (cereals; [15]) | Summer wheat observed (%) (cereals; [16]) | Summer wheat observed (%) (cereals; [17]) | herbicidal effect AVEFA [9] [%] | herbicidal effect against AVEFA (Avena fatua) [10] [%] | Summer barley observed (%) (cereals; [15]) | Summer barley observed (%) (cereals; [16]) | Summer barley observed (%) (cereals; [17]) | also measured
CCOC(=O)OC1=C(c2c(CC)cc(C)cc2CC)C(=O)[C@@H]2CC3(C[C@H]12)OCCO3 (relative stereo) [I-c-7] | 100 | 100 | 90 | 70 | 90 | 100 | 100 | 80 | 40 | 50 | 60 | 10 | 30 | 30 | 30 | 70 | 70 |  |  |  | 
C=C1COC2(C[C@@H]3C(O)=C(c4c(CC)cc(C)cc4CC)C(=O)[C@@H]3C2)OC1 [I-a-3] | 100 | 100 | 100 | 100 |  |  |  |  |  |  |  | 10 | 60 | 70 | 85 | 80 |  | 20 | 60 | 70 | pest or weed control at 80 g/ha (Alopecurus myosuroides [5]): 90%; pest or weed control at 80 g/ha (Echinocloa crus-galli [6]): 100%; pest or weed control at 80 g/ha (Lolium multiflorum [7]): 100%; pest or weed control at 80 g/ha (Setaria viridis [8]): 100%; pest or weed control at 80 g/ha [10]: 90%
CCc1cc(C)cc(CC)c1C1=C(O)[C@H]2C[C@]3(COC(C)(C)O3)C[C@H]2C1=O [I-a-2] | 90 | 90 | 100 | 50 |  |  |  |  |  |  |  | 40 | 50 | 60 |  | 50 |  |  |  |  | pest or weed control at 80 g/ha (Alopecurus myosuroides [5]): 100%; pest or weed control at 80 g/ha (Echinocloa crus-galli [6]): 100%; pest or weed control at 80 g/ha (Lolium multiflorum [7]): 100%; pest or weed control at 80 g/ha (Setaria viridis [8]): 90%; pest or weed control at 80 g/ha [10]: 70%
CCc1cc(C)cc(CC)c1C1=C(O)C2CC3(CC2C1=O)OCC(C)O3 (mixture of isomers) [I-a-10] | 70 | 80 | 100 | 60 | 90 | 100 | 100 | 90 | 30 | 50 | 60 |  |  |  |  | 50 | 80 |  |  |  | 
CCc1cc(C)cc(CC)c1C1=C(O)[C@H]2CC3(C[C@H]2C1=O)OCC=CCO3 (relative stereo) [I-a-14] | 100 | 100 | 100 | 90 | 90 | 100 | 100 | 100 | 50 | 60 | 60 | 10 | 30 | 30 | 70 | 80 | 90 | 8 | 10 | 20 | Summer barley observed (%) (cereals; [14]): 5%
CCc1cc(C)cc(CC)c1C1=C(O)[C@H]2CC3(C[C@H]2C1=O)OCC(C)CO3 (relative stereo) [I-a-25] | 100 | 90 | 100 | 90 | 100 | 100 | 100 | 100 |  |  |  | 10 | 30 | 70 | 85 | 70 | 100 |  | 60 | 85 | 
C=C1COC2(CC3C(=O)C(c4c(CC)cc(C)cc4CC)=C(OC(=O)C(C)C)C3C2)OC1 (stereo not shown) [I-b-13] | 100 | 100 | 100 | 100 | 100 | 100 | 100 | 100 |  |  |  | 20 | 40 | 80 | 85 | 80 | 100 |  | 20 | 50 | 
CCOC(=O)OC1=C(c2c(CC)cc(C)cc2CC)C(=O)[C@@H]2CC3(C[C@H]12)OCCCCO3 (relative stereo) [I-c-9] | 100 | 100 | 100 | 70 | 90 | 100 | 100 | 90 |  |  |  |  | 30 | 40 | 50 | 70 | 80 |  |  |  | 
CCc1cc(C)cc(CC)c1C1=C(O)[C@H]2CC3(C[C@H]2C1=O)OCCCCO3 (relative stereo) [I-a-13] | 90 | 100 | 100 | 90 | 90 | 100 | 100 | 90 | 40 | 50 | 60 |  |  |  |  | 80 | 90 |  |  |  | 
CCc1cc(C)cc(CC)c1C1=C([O-])C2CC3(CC2C1=O)OC(C)CC(C)O3.[Na+] (mixture of isomers) [I-f-19] | 100 | 100 | 100 | 100 | 100 | 100 | 100 | 100 |  |  |  | 20 | 90 | 97 | 99 | 60 | 100 | 10 | 20 | 50 | Summer barley observed (%) (cereals; [14]): 10%
